Like-named read-outs stand apart in the source and are kept apart here.
Legend:
papillary muscle = assay: Cardiac tropism: calcium antagonism on rabbit papillary muscle (inotropic effect of calcium chloride); conditions: for cardiac anti-calcium activity / cardiac tropism (in words): cardiac test, summary of Table I; for PAPILLARY MUSCLE pA2 / PAPILLARY MUSCLE pD'2: rabbit papillary muscle
Procedure: (§1) In vitro, the calcium antagonism activity was investigated in accordance with the methods summarised below.
Investiqation of a cardiac tropism
A rabbit's papillary muscle was placed in a KREBS-HENSELEIT solution kept at 37° C. and was stimulated electrically at a frequency of 1.5 Hz (5 ms of pulse at 15 V).
The positive inotropic effect of calcium chloride was investigated by the method of cumulative dose-response curves.
The substances to be studied were added to the solution in which the muscle was kept, 15 minutes prior to determining the agonist curves.
(§2) The conventional parameters of molecular pharmacology are subsequently determined (pA2 for a competitive antagonism and pD'2 for a non-competitive anatagonism), using the technique of VAN ROSSUM [ARCH. INT. PHARMACODYN. THER. 143, 299-330 (1963)].

isolated aorta = assay: Vascular tropism: anti-calcium effect on rabbit isolated aorta (contraction by calcium chloride); conditions: for ISOLATED AORTA pA2 / ISOLATED AORTA pD'2: rabbit isolated aorta, K+ depolarised, 37° C., 15 min; for ISOLATED AORTA pA2: competitive antagonism vs calcium chloride; for ISOLATED AORTA pD'2: non-competitive antagonism vs calcium chloride; for vascular anti-calcium activity / vascular tropism (in words): vascular test, summary of Table I
Procedure: as §1
Investigation of a vascular tropism
A rabbit's isolated aorta, cut into spirals, was placed in a KREBS solution kept at 37° C., free from Ca^++ and enriched with K^+ ([…] of KCL/liter) for depolarisation.
The contracting effect of cumulative concentrations of calcium chloride was investigated and the anti-calcium effect of the compounds studied was evaluated 15 minutes after their addition to the solution in which the aorta was kept.
as §2

anaesthetised dog = assay: Anti-angina activity: haemodynamic effects in the anaesthetised dog; assay type: in vivo; conditions: 5 mg.kg^-1 intravenously; for anti-anginal activity (in words): summary of Table II; for change in vivo at 5 mg/kg: Canis lupus familiaris, iv
Procedure: In vivo, the anti-angina activity was investigated by measuring the haemodynamic effects in the anaesthetised dog, in accordance with the method summarised below.
The following parameters were recorded on the dog anaesthetised with chloralose (100 mg.kg^-1 administered intravenously):
pulse rate, by means of subcutaneous ECG electrodes connected to a BECKMAN cardiotachymeter (branch D II),
coronary arterial flow recorded by means of a STATHAM electromagnetic flowmeter and
antitachycardiac action (inhibition of the positive chronotropic effects of isoprenaline).
These parameters were recorded continuously on a BECKMAN dynograph and at the same time the duration of the action was measured.
The compounds of the invention are administered intravenously at a dose of 5 mg.kg^-1.

[1] = 37° C., 15 min preincubation, competitive antagonism vs calcium chloride
[2] = read-out: CORONARY FLOW Variation
[3] = inhibition of positive chronotropic effects of isoprenaline, read-out: ANTI-TACHYCARDIAC ACTION Variation
[4] = inhibition of positive chronotropic effects of isoprenaline

With `Cc1ccc(N(Cc2ccccc2)CC(COCC(C)C)N2CCCC2)cc1` (stereo not shown) [Compound 1] the “cardiac anti-calcium activity / cardiac tropism (in words)” value (papillary muscle) was “more marked cardiac tropism”, the “PAPILLARY MUSCLE pA2” value (papillary muscle; [1]) was 4.30 ± 0.24 and the “PAPILLARY MUSCLE pD'2” value (papillary muscle; 37° C., 15 min preincubation, non-competitive antagonism vs calcium chloride) was 3.81 ± 0.20. The “ISOLATED AORTA pA2” value (isolated aorta) was 4.83 ± 0.28 and the “ISOLATED AORTA pD'2” value (isolated aorta) was 5.08 ± 0.27.
`CC(C)COCC(CN(Cc1ccccc1)c1ccc(Cl)c(Cl)c1)N1CCCC1` (stereo not shown) [Compound 2] was tested, and the “CORONARY FLOW Duration” value (anaesthetised dog) was 10 min, the “PULSE RATE Duration” value (anaesthetised dog) was over 45 min and the “anti-anginal activity (in words)” value (anaesthetised dog) was “most valuable anti-anginal activity”. For the same compound, the change in vivo at 5 mg/kg (anaesthetised dog; [2]) was 39%, the change in vivo at 5 mg/kg (anaesthetised dog; read-out: PULSE RATE Variation) was -11% and the change in vivo at 5 mg/kg (anaesthetised dog; [3]) was -51%. For the same compound, the “ANTI-TACHYCARDIAC ACTION Duration” value (anaesthetised dog; [4]) was 15 min.
`COc1ccc(N(Cc2ccccc2)CC(COCC(C)C)N2CCCC2)cc1` (stereo not shown) [Compound 3] was tested, and the “PAPILLARY MUSCLE pD'2” value (papillary muscle; at 10^-4 M, 15 min) was 4.5, the “cardiac anti-calcium activity / cardiac tropism (in words)” value (papillary muscle) was “more marked cardiac tropism” and the “PAPILLARY MUSCLE pA2” value (papillary muscle; [1]) was 4.87 ± 0.40. For the same compound, the “ISOLATED AORTA pA2” value (isolated aorta) was 4.70 ± 0.38, the “ISOLATED AORTA pD'2” value (isolated aorta) was 4.00 ± 0.24 and the “CORONARY FLOW Duration” value (anaesthetised dog) was 20 min. For the same compound, the “PULSE RATE Duration” value (anaesthetised dog) was over 45 min, the “anti-anginal activity (in words)” value (anaesthetised dog) was “most valuable anti-anginal activity” and the change in vivo at 5 mg/kg (anaesthetised dog; [2]) was 196%. The change in vivo at 5 mg/kg (anaesthetised dog; read-out: PULSE RATE Variation) was -24%, the change in vivo at 5 mg/kg (anaesthetised dog; [3]) was -63% and the “ANTI-TACHYCARDIAC ACTION Duration” value (anaesthetised dog; [4]) was 30 min.
For `CC(C)COCC(CN(Cc1ccccc1)c1ccc(Cl)cc1)N1CCCC1` (stereo not shown) [Compound 4], the “CORONARY FLOW Duration” value (anaesthetised dog) was 3 min, the “PULSE RATE Duration” value (anaesthetised dog) was over 45 min and the change in vivo at 5 mg/kg (anaesthetised dog; [2]) was 32%. The change in vivo at 5 mg/kg (anaesthetised dog; read-out: PULSE RATE Variation) was -27%, the change in vivo at 5 mg/kg (anaesthetised dog; [3]) was -60% and the “ANTI-TACHYCARDIAC ACTION Duration” value (anaesthetised dog; [4]) was over 45 min.
In the case of `CC(C)COCC(CN(Cc1ccccc1)c1cccc(Cl)c1)N1CCCC1` (stereo not shown) [Compound 5, 2-(N-pyrrolidino)-3-isobutoxy-N-(3-chloro)-phenyl-N-benzyl-propylamine], the “PAPILLARY MUSCLE pA2” value (papillary muscle; at 10^-4 M) was “Inactive”, the “ISOLATED AORTA pA2” value (isolated aorta) was 4.83 ± 0.27 and the “ISOLATED AORTA pD'2” value (isolated aorta) was 4.71 ± 0.20. The “CORONARY FLOW Duration” value (anaesthetised dog) was 15 min, the “PULSE RATE Duration” value (anaesthetised dog) was over 45 min and the “anti-anginal activity (in words)” value (anaesthetised dog) was “most valuable anti-anginal activity”. The change in vivo at 5 mg/kg (anaesthetised dog; [2]) was 98%, the change in vivo at 5 mg/kg (anaesthetised dog; read-out: PULSE RATE Variation) was -20% and the change in vivo at 5 mg/kg (anaesthetised dog; [3]) was -45%. For the same compound, the “ANTI-TACHYCARDIAC ACTION Duration” value (anaesthetised dog; [4]) was 15 min.
In the case of `CC(C)COCC(CN(Cc1ccccc1)c1cccc(C(F)(F)F)c1)N1CCCC1` (stereo not shown) [Compound 6], the “PAPILLARY MUSCLE pA2” value (papillary muscle; at 10^-4 M, 15 min) was 3.41, the “ISOLATED AORTA pA2” value (isolated aorta) was 5.19 ± 0.37 and the “ISOLATED AORTA pD'2” value (isolated aorta) was 3.73 ± 0.50. The “vascular anti-calcium activity / vascular tropism (in words)” value (isolated aorta) was “predominantly vascular tropism”, the “CORONARY FLOW Duration” value (anaesthetised dog) was 1 min and the “PULSE RATE Duration” value (anaesthetised dog) was over 45 min. It also gave a change in vivo at 5 mg/kg (anaesthetised dog; [2]) of 20%, a change in vivo at 5 mg/kg (anaesthetised dog; read-out: PULSE RATE Variation) of -32% and a change in vivo at 5 mg/kg (anaesthetised dog; [3]) of -64%. For the same compound, the “ANTI-TACHYCARDIAC ACTION Duration” value (anaesthetised dog; [4]) was over 45 min.
For `CC(C)COCC(CN(Cc1ccccc1)c1cc(Cl)cc(Cl)c1)N1CCCC1` (stereo not shown) [Compound 7], the “PAPILLARY MUSCLE pA2” value (papillary muscle; at 10^-4 M) was “Inactive”, the “ISOLATED AORTA pA2” value (isolated aorta) was 4.70 ±0.60 and the “ISOLATED AORTA pD'2” value (isolated aorta) was 3.85 ± 0.43. For the same compound, the “CORONARY FLOW Duration” value (anaesthetised dog) was 5 min, the “PULSE RATE Duration” value (anaesthetised dog) was 45 min and the change in vivo at 5 mg/kg (anaesthetised dog; [2]) was 31%. For the same compound, the change in vivo at 5 mg/kg (anaesthetised dog; read-out: PULSE RATE Variation) was -23%, the change in vivo at 5 mg/kg (anaesthetised dog; [3]) was -54% and the “ANTI-TACHYCARDIAC ACTION Duration” value (anaesthetised dog; [4]) was 45 min.
In the case of `Cc1cccc(C)c1N(Cc1ccccc1)CC(COCC(C)C)N1CCCC1` (stereo not shown) [Compound 8], the “PAPILLARY MUSCLE pD'2” value (papillary muscle; at 10^-4 M, 15 min) was 3.69, the “PAPILLARY MUSCLE pA2” value (papillary muscle; at 10^-5 M, 15 min) was 4.67 and the “cardiac anti-calcium activity / cardiac tropism (in words)” value (papillary muscle) was “noteworthy”. The “ISOLATED AORTA pA2” value (isolated aorta) was 5.21 ± 0.65, the “ISOLATED AORTA pD'2” value (isolated aorta) was 4.87 ± 0.48 and the “vascular anti-calcium activity / vascular tropism (in words)” value (isolated aorta) was “noteworthy”. The “CORONARY FLOW Duration” value (anaesthetised dog) was 15 min, the “PULSE RATE Duration” value (anaesthetised dog) was 35 min and the “anti-anginal activity (in words)” value (anaesthetised dog) was “most valuable anti-anginal activity”. For the same compound, the change in vivo at 5 mg/kg (anaesthetised dog; [2]) was 85%, the change in vivo at 5 mg/kg (anaesthetised dog; read-out: PULSE RATE Variation) was -36% and the change in vivo at 5 mg/kg (anaesthetised dog; [3]) was -28%. For the same compound, the “ANTI-TACHYCARDIAC ACTION Duration” value (anaesthetised dog; [4]) was 15 min.
In the case of `CC(C)COCC(CN(Cc1ccccc1)c1ccc2c(c1)OCO2)N1CCCC1` (stereo not shown) [Compound 11, 2-(N-pyrrolidino)-3-isobutoxy-N-(3,4-methylenedioxy)-phenyl-N-benzyl-propylamine], the “PAPILLARY MUSCLE pD'2” value (papillary muscle; at 10^-4 M) was “total”, the “cardiac anti-calcium activity / cardiac tropism (in words)” value (papillary muscle) was “about the highest activity” and the “PAPILLARY MUSCLE pA2” value (papillary muscle; [1]) was 5.44 ± 0.26. The “ISOLATED AORTA pA2” value (isolated aorta) was 4.94 ± 0.43, the “ISOLATED AORTA pD'2” value (isolated aorta) was 4.80 ± 0.05 and the “vascular anti-calcium activity / vascular tropism (in words)” value (isolated aorta) was “about the highest activity”. For the same compound, the “CORONARY FLOW Duration” value (anaesthetised dog) was 20 min, the “PULSE RATE Duration” value (anaesthetised dog) was over 45 min and the “anti-anginal activity (in words)” value (anaesthetised dog) was “most valuable anti-anginal activity”. It also gave a change in vivo at 5 mg/kg (anaesthetised dog; [2]) of 116%, a change in vivo at 5 mg/kg (anaesthetised dog; read-out: PULSE RATE Variation) of -50% and a change in vivo at 5 mg/kg (anaesthetised dog; [3]) of -47%. The “ANTI-TACHYCARDIAC ACTION Duration” value (anaesthetised dog; [4]) was 45 min.
